Assay results published in ChEMBL document CHEMBL1144732 (Bioorg Med Chem Lett, 2008).
pKi: −log10 of the molar value.

Key:
[1] = molecular target: Carbonic anhydrase 4 (Homo sapiens, UniProt P22748)
[2] = molecular target: Carbonic anhydrase 13 (Mus musculus, UniProt Q9D6N1)
[3] = molecular target: Carbonic anhydrase 5A, mitochondrial (Homo sapiens, UniProt P35218)
[4] = molecular target: Carbonic anhydrase 3 (Homo sapiens, UniProt P07451)
[5] = molecular target: Carbonic anhydrase 5B, mitochondrial (Homo sapiens, UniProt Q9Y2D0)
Chain of Carbonic anhydrase 5B, mitochondrial (Q9Y2D0 whole entry): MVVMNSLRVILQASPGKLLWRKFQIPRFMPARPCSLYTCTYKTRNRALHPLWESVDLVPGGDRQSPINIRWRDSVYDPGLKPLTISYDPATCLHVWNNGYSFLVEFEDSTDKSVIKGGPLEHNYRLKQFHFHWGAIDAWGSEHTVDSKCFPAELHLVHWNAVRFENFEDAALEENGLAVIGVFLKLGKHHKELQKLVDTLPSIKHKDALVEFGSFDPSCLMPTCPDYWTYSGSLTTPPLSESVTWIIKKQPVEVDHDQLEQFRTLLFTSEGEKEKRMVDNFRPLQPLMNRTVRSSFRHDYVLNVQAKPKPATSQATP

[6] = molecular target: Carbonic anhydrase 14 (Homo sapiens, UniProt Q9ULX7)
Chain of Carbonic anhydrase 14 (Q9ULX7 whole entry): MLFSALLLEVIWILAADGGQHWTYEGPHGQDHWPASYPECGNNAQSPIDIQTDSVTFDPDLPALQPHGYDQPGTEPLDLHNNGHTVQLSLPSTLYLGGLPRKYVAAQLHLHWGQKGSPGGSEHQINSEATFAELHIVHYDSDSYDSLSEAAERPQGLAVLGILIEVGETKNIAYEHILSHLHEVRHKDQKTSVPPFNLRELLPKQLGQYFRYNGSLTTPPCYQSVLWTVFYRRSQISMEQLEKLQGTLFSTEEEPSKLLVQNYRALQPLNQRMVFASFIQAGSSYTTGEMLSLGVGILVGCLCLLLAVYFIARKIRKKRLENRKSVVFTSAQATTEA

Chain of Carbonic anhydrase 13 (Q9D6N1 whole entry): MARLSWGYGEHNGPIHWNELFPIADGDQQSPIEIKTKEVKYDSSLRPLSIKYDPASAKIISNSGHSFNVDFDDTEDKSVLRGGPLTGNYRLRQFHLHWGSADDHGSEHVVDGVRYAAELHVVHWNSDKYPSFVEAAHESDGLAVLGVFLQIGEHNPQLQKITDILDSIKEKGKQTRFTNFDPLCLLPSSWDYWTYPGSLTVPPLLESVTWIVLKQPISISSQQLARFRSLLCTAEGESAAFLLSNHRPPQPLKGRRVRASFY
Chain of Carbonic anhydrase 4 (P22748 whole entry): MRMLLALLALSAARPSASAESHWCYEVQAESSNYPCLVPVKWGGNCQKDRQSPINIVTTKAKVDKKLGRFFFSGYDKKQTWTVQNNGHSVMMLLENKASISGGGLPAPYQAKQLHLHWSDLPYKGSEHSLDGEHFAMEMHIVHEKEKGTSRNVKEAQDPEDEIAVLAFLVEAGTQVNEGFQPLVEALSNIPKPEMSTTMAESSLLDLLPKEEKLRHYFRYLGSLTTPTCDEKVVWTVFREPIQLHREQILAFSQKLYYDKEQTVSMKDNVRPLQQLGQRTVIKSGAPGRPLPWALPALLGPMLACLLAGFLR
Chain of Carbonic anhydrase 5A, mitochondrial (P35218 whole entry): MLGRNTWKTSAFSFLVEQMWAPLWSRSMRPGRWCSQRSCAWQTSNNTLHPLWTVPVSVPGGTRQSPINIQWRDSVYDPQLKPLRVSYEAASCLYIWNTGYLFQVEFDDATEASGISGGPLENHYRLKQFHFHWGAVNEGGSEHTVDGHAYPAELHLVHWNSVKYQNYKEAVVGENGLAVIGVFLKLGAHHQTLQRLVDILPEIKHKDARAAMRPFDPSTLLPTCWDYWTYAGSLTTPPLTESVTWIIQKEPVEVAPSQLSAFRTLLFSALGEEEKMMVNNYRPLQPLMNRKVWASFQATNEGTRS
Chain of Carbonic anhydrase 3 (P07451 whole entry): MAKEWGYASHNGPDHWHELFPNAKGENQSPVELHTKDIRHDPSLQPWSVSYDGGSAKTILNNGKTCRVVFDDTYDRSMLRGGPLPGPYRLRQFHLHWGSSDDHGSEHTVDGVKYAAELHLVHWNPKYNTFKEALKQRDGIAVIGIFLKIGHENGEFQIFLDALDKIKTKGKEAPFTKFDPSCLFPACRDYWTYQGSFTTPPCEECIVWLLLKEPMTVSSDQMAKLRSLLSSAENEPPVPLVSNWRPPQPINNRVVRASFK

| SMILES | pKi [1] | pKi [2] | pKi [3] | pKi [4] | pKi [5] | pKi [6] |
| --- | --- | --- | --- | --- | --- | --- |
| CCNC1CN(CCCOC)S(=O)(=O)c2sc(S(N)(=O)=O)cc21 (single isomer, unassigned) [BRINZOLAMIDE] | 5.40 | 8.00 |  |  |  |  |
| NS(=O)(=O)c1cc(Cl)c(Cl)c(S(N)(=O)=O)c1 [DICHLORPHENAMIDE] |  | 5.84 | 7.09 | 3.20 | 7.04 | 5.81 |
